The target of one experiment is T1, rTAAR8c (Rattus norvegicus, UniProt Q923Y0).
T1 construct: Full Taar coding regions were cloned into pcDNA3.1; expressed in transfected cells; host or cells: HEK293
T1 sequence (Q923Y0 1-344): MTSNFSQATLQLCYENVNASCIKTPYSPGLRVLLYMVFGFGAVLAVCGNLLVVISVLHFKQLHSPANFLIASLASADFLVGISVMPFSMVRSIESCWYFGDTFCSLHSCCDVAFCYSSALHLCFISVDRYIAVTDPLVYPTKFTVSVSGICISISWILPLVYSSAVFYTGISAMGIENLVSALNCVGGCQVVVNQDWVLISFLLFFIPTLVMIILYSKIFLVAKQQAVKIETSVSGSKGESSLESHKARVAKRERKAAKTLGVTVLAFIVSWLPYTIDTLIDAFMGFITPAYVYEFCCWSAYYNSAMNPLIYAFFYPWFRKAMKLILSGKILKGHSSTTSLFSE
In words: CRE-SEAP reporter gene assay in HEK293 cells transfected with rTAAR8c. The class given is cell-based. To be noted: FIG. 11A, functional with or without 'Rho tag', EC50 ± s.e.m., 4-parameter Hill equation. The protocol:
(§1) FIG. 11 illustrates the dose-dependent responses of TAARs to amines. HEK293 cells were cotransfected with plasmids encoding CRE-SEAP and rTAARs (a) or mTAARs (b), incubated with concentrations of ligands indicated, and assayed for reporter activity (triplicates±s.d.). EC50 values (±s.e.m, bottom right) were calculated using SigmaPlot (Systat Software) and a 4-parameter Hill equation.
(§2) The following mixes (10 μM of each indicated compounds) were tested for their ability to activate rat TAARs. Mix 1: butylamine, dibutylamine, hexylamine. Mix 2: 2-aminopentane, isoamylamine, isobutylamine, isopropylamine. Mix 3: N,N-dimethylcyclohexylamine, 1-methylindole, tryptamine, phenylethylamine. Mix 4: indole, 1-methylpyrrolidine, 1-methylpiperidine, pyrrolidine. […]
(§3) Full Taar coding regions were cloned into pcDNA3.1-(Invitrogen) with or without a 5′ DNA extension of 69 bp encoding the first 20 amino acids of bovine rhodopsin followed by a cloning linker ([…]). […] Fluorescence was measured on an EnVision plate reader (Perkin Elmer) and SEAP activity graphed as relative fluorescence of a phosphatase substrate.
(§4) Here, we set out to identify agonists for additional mouse and rat TAARs. […] Transfected cells were incubated with test chemicals, and phosphatase activity was quantified with a fluorescent substrate as a reporter for TAAR activation. […]
Background: A reporter such as luciferase makes a cellular process visible.

The target of a further experiment is T2, rTAAR9 (Rattus norvegicus, UniProt Q923Y6).
T2 construct: Full Taar coding regions were cloned into pcDNA3.1; expressed in transfected cells; host or cells: HEK293
T2 sequence (Q923Y6 1-338): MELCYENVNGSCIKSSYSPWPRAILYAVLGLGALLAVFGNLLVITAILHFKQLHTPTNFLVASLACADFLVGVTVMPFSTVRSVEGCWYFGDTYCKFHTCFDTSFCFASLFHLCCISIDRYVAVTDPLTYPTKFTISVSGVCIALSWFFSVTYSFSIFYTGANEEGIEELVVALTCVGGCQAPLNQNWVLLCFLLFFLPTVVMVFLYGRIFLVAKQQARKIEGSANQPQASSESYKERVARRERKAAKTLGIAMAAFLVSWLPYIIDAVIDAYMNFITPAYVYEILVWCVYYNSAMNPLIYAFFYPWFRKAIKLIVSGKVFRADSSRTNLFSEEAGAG
In words: CRE-SEAP reporter gene assay in HEK293 cells transfected with rTAAR9. To be noted: FIG. 11A, functional with or without 'Rho tag', EC50 ± s.e.m., 4-parameter Hill equation. The class given is cell-based. On the procedure:
as §1, §2, §3, §4

The target of the next experiment is T3, mTAAR7b (Mus musculus, UniProt Q5QD11).
T3 sequence (Q5QD11 1-358): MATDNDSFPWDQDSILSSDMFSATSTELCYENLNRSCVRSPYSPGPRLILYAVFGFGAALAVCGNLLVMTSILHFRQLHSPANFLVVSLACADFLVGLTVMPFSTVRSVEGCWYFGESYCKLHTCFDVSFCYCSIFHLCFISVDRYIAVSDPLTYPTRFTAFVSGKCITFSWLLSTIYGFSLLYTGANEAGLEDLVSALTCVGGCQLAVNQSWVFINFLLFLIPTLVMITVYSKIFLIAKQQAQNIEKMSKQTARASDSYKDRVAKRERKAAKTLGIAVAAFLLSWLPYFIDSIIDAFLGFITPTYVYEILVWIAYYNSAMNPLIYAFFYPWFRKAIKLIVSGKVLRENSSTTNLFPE
In words: CRE-SEAP reporter gene assay in HEK293 cells transfected with mTAAR7b. Type of experiment: cell-based. The arrangement: Full Taar coding regions were cloned into pcDNA3.1; expressed in transfected cells; host or cells: HEK293. Particulars: FIG. 11B, functional with or without 'Rho tag', EC50 ± s.e.m., 4-parameter Hill equation. On the procedure: as §1
Chemicals tested for the ability to activate mouse TAARs include those previously described (Liberles, S. D., and Buck, L. B. (2006) A second class of chemosensory receptors in the olfactory epithelium, Nature 442, 645-650), as well as the following mixes (5 μM of each indicated compounds). Mix 1: N,N-dimethyl-cyclohexylamine, N,N-dimethyl-phenylethylamine, creatinine, taurine. […]
as §3, §4

The target in another experiment is T4, rTAAR7h (Rattus norvegicus, UniProt Q923Y4).
T4 sequence (Q923Y4 1-358): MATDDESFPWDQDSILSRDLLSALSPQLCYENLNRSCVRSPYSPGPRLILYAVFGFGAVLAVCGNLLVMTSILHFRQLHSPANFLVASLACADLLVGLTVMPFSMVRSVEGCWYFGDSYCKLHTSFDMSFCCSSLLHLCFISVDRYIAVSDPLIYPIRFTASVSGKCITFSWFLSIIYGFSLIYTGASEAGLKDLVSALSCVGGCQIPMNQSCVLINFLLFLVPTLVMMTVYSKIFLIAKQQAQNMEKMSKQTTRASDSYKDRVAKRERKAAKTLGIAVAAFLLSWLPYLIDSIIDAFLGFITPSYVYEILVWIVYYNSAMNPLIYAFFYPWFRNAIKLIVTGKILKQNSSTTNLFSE
In words: CRE-SEAP reporter gene assay in HEK293 cells transfected with rTAAR7h. Type of experiment: cell-based. The arrangement: Full Taar coding regions were cloned into pcDNA3.1; expressed in transfected cells; host or cells: HEK293. To be noted: FIG. 11A, functional with or without 'Rho tag', EC50 ± s.e.m., 4-parameter Hill equation. The protocol: as §1, §2, §3, §4

A further experiment has as its target T5, TAAR5 (Mus musculus, UniProt Q5QD14).
T5 sequence (Q5QD14 1-337): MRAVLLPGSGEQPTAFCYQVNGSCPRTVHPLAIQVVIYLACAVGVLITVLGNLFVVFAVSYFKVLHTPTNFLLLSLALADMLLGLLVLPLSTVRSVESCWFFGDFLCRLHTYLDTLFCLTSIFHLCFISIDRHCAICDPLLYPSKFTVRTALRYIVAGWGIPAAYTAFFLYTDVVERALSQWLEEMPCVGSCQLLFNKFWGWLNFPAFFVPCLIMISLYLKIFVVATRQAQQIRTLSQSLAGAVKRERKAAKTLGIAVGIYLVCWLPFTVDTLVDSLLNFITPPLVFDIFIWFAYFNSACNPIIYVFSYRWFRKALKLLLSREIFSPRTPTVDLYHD
Particulars: cited from earlier work.

The source of these data is patent US20140221499A1, “NOVEL RODENT CONTROL AGENTS AND USES THEREOF” (priority 2011, published 2014).

With `CN1CCCCC1` [1-methylpiperidine], the EC50 (in general, the midpoint of the concentration-response curve) on rTAAR8c was found to be 0.08 ± 0.02 µM; on rTAAR9, 18.3 ± 0.4 µM. As for `CCCCN(C)C` [N,N-DIMETHYLBUTYLAMINE, N,N-dimethylbutylamine], the EC50 on mTAAR7b is 20.1 ± 8.9 µM.

As for `CCCCCCCCN(C)C` [N,N-DIMETHYLOCTYLAMINE, N,N-dimethyloctylamine], a half-maximal response at rTAAR7h (EC50) required 12.7 ± 6.2 µM. As to `CN(C)C` [Trimethylamine, trimethylamine], on TAAR5, the TAAR5 activation result is “activates TAAR5”.
